We go through six molecules from ChEMBL document CHEMBL4825691, “Antimicrobial, modulatory, and antibiofilm activity of tt-farnesol on bacterial and fungal strains of importance to human health” (2021).

Assay type in all cases: functional
Assay [1] has as its system Escherichia coli. The assay can be described thus: Antibacterial activity against Escherichia coli ATCC 25922 assessed as inhibition of bacterial growth incubated for 24 hrs by microdilution assay. (In general: Dilution methods test growth across graded concentrations, often in twofold steps.)
Assay [2] concerns Streptococcus agalactiae. The experiment in a line: Antibacterial activity against Streptococcus agalactiae ATCC 13813 assessed as inhibition of bacterial growth incubated for 24 hrs by microdilution assay.
Assay [3] concerns Streptococcus pyogenes. The assay can be described thus: Antibacterial activity against Streptococcus pyogenes ATCC 19615 assessed as inhibition of bacterial growth incubated for 24 hrs by microdilution assay.
Assay [4] has as its system Streptococcus mutans. The experiment in a line: Antibacterial activity against Streptococcus mutans ATCC 25175 assessed as inhibition of bacterial growth incubated for 24 hrs by microdilution assay.
In assay [5] the test system is Enterococcus durans. The assay can be described thus: Antibacterial activity against Enterococcus durans BIO 0114 assessed as inhibition of bacterial growth incubated for 24 hrs by microdilution assay.
The subject of assay [6] is Enterococcus faecalis. The experiment in a line: Antibacterial activity against Enterococcus faecalis ATCC 6569 assessed as inhibition of bacterial growth incubated for 24 hrs by microdilution assay.
In assay [7] the test system is Shigella flexneri. The assay can be described thus: Antibacterial activity against Shigella flexneri CCCD S006 assessed as inhibition of bacterial growth incubated for 24 hrs by microdilution assay.
Assay [8] concerns Enterococcus faecalis. The assay can be described thus: Antibacterial activity against Enterococcus faecalis ATCC 29212 assessed as inhibition of bacterial growth incubated for 24 hrs by microdilution assay.
Assay [9] has as its system Streptococcus sobrinus. The assay can be described thus: Antibacterial activity against Streptococcus sobrinus ATCC 27351 assessed as inhibition of bacterial growth incubated for 24 hrs by microdilution assay.
Assay [10] relates to Serratia marcescens. The assay can be described thus: Antibacterial activity against Serratia marcescens ATCC 13880 assessed as inhibition of bacterial growth incubated for 24 hrs by microdilution assay. The following applies: subsp. marcescens ATCC 13880.
The subject of assay [11] is Salmonella typhimurium. The experiment in a line: Antibacterial activity against Salmonella enterica subsp. enterica serovar Typhimurium ATCC 14028 assessed as inhibition of bacterial growth incubated for 24 hrs by microdilution assay.
The subject of assay [12] is Proteus mirabilis. The assay can be described thus: Antibacterial activity against Proteus mirabilis ATCC 25933 assessed as inhibition of bacterial growth incubated for 24 hrs by microdilution assay.
The subject of assay [13] is Escherichia coli. The experiment in a line: Antibacterial activity against Escherichia coli ETEC 2589093 assessed as inhibition of bacterial growth incubated for 24 hrs by microdilution assay.
Assay [14] relates to Escherichia coli. The assay can be described thus: Antibacterial activity against Escherichia coli EHEC 933 assessed as inhibition of bacterial growth incubated for 24 hrs by microdilution assay.
The test system of assay [15] is Escherichia coli. The experiment in a line: Antibacterial activity against Escherichia coli EAEC I 4913 assessed as inhibition of bacterial growth incubated for 24 hrs by microdilution assay.
The subject of assay [16] is Escherichia coli. The experiment in a line: Antibacterial activity against Escherichia coli STEC 2C1 assessed as inhibition of bacterial growth incubated for 24 hrs by microdilution assay.
Assay [17] has as its system Escherichia coli. The assay can be described thus: Antibacterial activity against Escherichia coli EOL 931 assessed as inhibition of bacterial growth incubated for 24 hrs by microdilution assay.
In assay [18] the test system is Escherichia coli. The experiment in a line: Antibacterial activity against Escherichia coli EPEC E234969 assessed as inhibition of bacterial growth incubated for 24 hrs by microdilution assay.
Assay [19] relates to Escherichia coli. The assay can be described thus: Antibacterial activity against Escherichia coli EIEC E20851 assessed as inhibition of bacterial growth incubated for 24 hrs by microdilution assay.
Assay [20] relates to Acinetobacter baumannii. The experiment in a line: Antibacterial activity against Acinetobacter baumannii ATCC 19606 assessed as inhibition of bacterial growth incubated for 24 hrs by microdilution assay. Conditions: ATCC 19606 = CIP 70.34 = JCM 6841.
The subject of assay [21] is Stenotrophomonas maltophilia. The assay can be described thus: Antibacterial activity against Stenotrophomonas maltophilia EM 0104assessed as inhibition of bacterial growth incubated for 24 hrs by microdilution assay.
Assay [22] relates to Staphylococcus aureus. The assay can be described thus: Antibacterial activity against Staphylococcus aureus ATCC 29213 assessed as inhibition of bacterial growth incubated for 24 hrs by microdilution assay.
In assay [23] the test system is Staphylococcus epidermidis. The experiment in a line: Antibacterial activity against Staphylococcus epidermidis ATCC 12228 assessed as inhibition of bacterial growth incubated for 24 hrs by microdilution assay.
The test system of assay [24] is Klebsiella pneumoniae. The experiment in a line: Antibacterial activity against Klebsiella pneumoniae ATCC 700603 assessed as inhibition of bacterial growth incubated for 24 hrs by microdilution assay.
Assay [25] concerns Klebsiella pneumoniae. The experiment in a line: Antibacterial activity against Klebsiella pneumoniae ATCC 1705 assessed as inhibition of bacterial growth incubated for 24 hrs by microdilution assay.

≈ marks a conversion by molar mass, not a printed value.

As for `CC1(C)S[C@@H]2[C@H](NC(=O)[C@H](N)c3ccccc3)C(=O)N2[C@H]1C(=O)O` [AMPICILLIN], the MIC – broadly, the least concentration at which growth counts as inhibited – was 4 µg/mL (≈ 11.4 µM) in [1]; 0.25 µg/mL (≈ 0.715 µM) in [2]; 0.0625 µg/mL (≈ 0.179 µM) in [3]; 0.5 µg/mL (≈ 1.43 µM) in assay [4]; 4 µg/mL (≈ 11.4 µM) in assay [5]; 4 µg/mL (≈ 11.4 µM) in assay [6]. Moreover, the MIC was determined as 4 µg/mL (≈ 11.4 µM) in assay [7]; 4 µg/mL (≈ 11.4 µM) in assay [8]; 0.125 µg/mL (≈ 0.358 µM) in assay [9]; 4 µg/mL (≈ 11.4 µM) in assay [10]; 4 µg/mL (≈ 11.4 µM) in assay [11].
On to `O=C(O)c1cn(C2CC2)c2cc(N3CCNCC3)c(F)cc2c1=O` [CIPROFLOXACIN], for which, in assay [12], the MIC was found to be 0.25 µg/mL (≈ 0.754 µM).
As to `C[C@@H](O)[C@H]1C(=O)N2C(C(=O)O)=C(S[C@@H]3CN[C@H](C(=O)N(C)C)C3)[C@H](C)[C@H]12` [MEROPENEM], the MIC in assay [13], in assay [14], in [15], in [16], in assay [17] and in assay [18] was 0.625 µg/mL (≈ 1.63 µM) in each case. In [19], the MIC worked out at 0.625 µg/mL (≈ 1.63 µM).
Consider `CN(C)c1ccc(O)c2c1C[C@H]1C[C@H]3[C@H](N(C)C)C(O)=C(C(N)=O)C(=O)[C@@]3(O)C(O)=C1C2=O` [MINOCYCLINE], for which the MIC in [20] and in assay [21] was 2 µg/mL (≈ 4.37 µM) each time.
Consider `Cc1onc(-c2ccccc2)c1C(=O)N[C@@H]1C(=O)N2[C@@H]1SC(C)(C)[C@@H]2C(=O)O` [OXACILLIN], for which the minimal inhibitory concentration (MIC) in [22] and in assay [23] was 0.25 µg/mL (≈ 0.623 µM) in each case.
For COLISTIN, the MIC in assay [24] and in assay [25] was 1 µg/mL in each case.
